EP0386243A1, “PLATINUM (II) COMPLEXES” (SAGAMI CHEMICAL RESEARCH CENTER, priority 1987, dated 1989)
Read-outs that look alike come from different tables or passages of the source.

How the values were obtained:
[1] = tested on: Mouse lymphatic leukemia tumor cells, P-388; test: Growth suppressing effect on mouse lymphatic leukemia tumor cells P-388 (48 h culture, Coulter counter cell count); format: cell-based; conditions: P-388 cells 5 x 10^4 cells/ml, 37°C, no more than 0.5% DMSO
Method: The number of suspended cells was counted with a Coulter counter and ICso values were determined from dose response curves that were constructed for the respective compounds on the basis of percent growth inhibition as compared to the absence of the compounds.

[2] = Toxicity: S-GPT (serum transaminase) and BUN (blood urea nitrogen) levels; format: in vivo

Q: With CC(C(=O)C(=O)[O-])c1ccc(C(=O)[O-])cc1.CC(C(=O)C(=O)[O-])c1ccc(C(=O)[O-])cc1.C[NH2+]C.C[NH2+]C.NC1CCCCC1N.[Pt+2] (stereo not drawn) [Compound No. 33, bis{β-methyl(p-carboxyphenylpyruvato)}(trans-d,ℓ-1,2-diaminocyclohexane)platinum (II) bis(dimethylammonium) salt] as the compound, how does the IC50 [1] read?
A: 0.024 µg/mL

Q: And the IC50 ([1]; read-out: IC50)?
A: 0.028 µM

Q: With “bis(β-methylphenylpyruvato)ethylenediamine platinum (II) [Compound No. 17]” as the compound, how does the IC50 ([1]; read-out: IC50) read?
A: > 10 µM

Q: Which results are given for “bis{β-methyl(p-isobutylphenylpyruvato)}(trans-Q-1,2-diaminocyclohexane)platinum (II) [Compound No. 14]”?
A: S-GPT (serum transaminase) ([2]; indicator of hepatotoxicity): did not cause any appreciable increase; BUN (blood urea nitrogen) ([2]; indicator of nephrotoxicity): did not cause any appreciable increase
